Data on three substances can be found in US20250353873A1, “COMPOUNDS AND METHODS FOR MODULATING APOE EXPRESSION” (Ionis Pharmaceuticals, Inc., priority 2024, published 2025).

A word on the IC50: it is the point on the concentration scale where inhibition reaches its midpoint.

For series [1], the system named is human APOE RNA. The series is described as follows: Activity in APOE C57BL/6NTac-Apoeem7250 knock-in mice, single ICV bolus, 4 weeks (Example 10). Type of series: in vivo. The settings on record: single ICV bolus 300 μg. Put shortly:
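Knock-in mice (2–4 per group) received one 300 μg ICV bolus of oligonucleotide or PBS. After four weeks, human APOE RNA in cortex and spinal cord measured by RT-qPCR (primer probe set RTS3073), normalized to mouse Ppia, expressed as % of PBS controls.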

In series [2] the test system is human APOE RNA. The series is described as follows: Activity in APOE C57BL/6NTac-Apoeem7250 knock-in mice, single ICV bolus, 8 weeks (Example 11). Format: in vivo. The settings on record: for APOE RNA (% control) Cortex / APOE RNA (% control) Spinal Cord: single ICV bolus 300 μg, 8 weeks post treatment, normalized to mouse Ppia. A digest of the protocol: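 Human APOE knock-in C57BL/6NTac mice given one ICV bolus of 300 μg oligonucleotide; PBS-dosed group as control. At 8 weeks, cortex and spinal cord RNA measured by qRT-PCR (human probe RTS3073), normalized to mouse Ppia, expressed as % of PBS control.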

The subject of series [3] is human APOE RNA. The series is described as follows: Dose-dependent reduction of human APOE RNA in HepG2 cells, electroporation, 20,000 cells per well, average of GAPDH- and PPIA-normalized results (Example 4, Table 12). Format: cell-based. The settings on record: HepG2, 20,000 cells per well. The protocol: HepG2 cells plated at a density of 20,000 cells per well were treated by electroporation with various concentrations of modified oligonucleotide as specified in the tables below. […] APOE RNA levels were measured using the human primer probe set RTS3073 (described herein above). APOE RNA levels were normalized to human GAPDH, and human PPIA. Human GAPDH was amplified using human primer probe set RTS104 (described herein above). Human PPIA was amplified using human primer probe set mk_cycloA_2nd (described herein above) The average of the GAPDH-normalized results and the PPIA-normalized results are presented in the table below as percent APOE RNA, relative to the amount of APOE RNA in untreated control cells (% UTC). The half maximal inhibitory concentration (IC50) of each modified oligonucleotide was calculated in GraphPad Prism 10 (GraphPad Software, San Diego, CA) and is also presented in the table below.

Series [4] relates to human APOE RNA. The series is described as follows: Dose-dependent inhibition of human APOE RNA in differentiated SH-SY5Y cells, free uptake, 5 days (Example 5). Format: cell-based. Here is the method: Modified oligonucleotides selected from the examples above were tested at various doses in differentiated SH-SY5Y cells. The modified oligonucleotides were tested in a series of experiments that had the same culture conditions.
Differentiated SH-SY5Y cells plated at a density of 10,000 cells per well were treated by free uptake with various concentrations of modified oligonucleotide as specified in the tables below. […] APOE RNA levels were measured using the human primer probe set RTS3073 (described herein above). APOE RNA levels were normalized to human PPIA. Human PPIA was amplified using human primer probe set mk_cycloA_2nd (described herein above). Results are presented as percent APOE RNA, relative to the amount of APOE RNA in untreated control cells (% UTC). The half maximal inhibitory concentration (IC50) of each modified oligonucleotide was calculated in GraphPad Prism 10 (GraphPad Software, San Diego, CA) and is also presented in the tables below.

Strand notation (5' to 3'): a small letter for the sugar, then the base; units joined by * are phosphorothioate-linked, units joined directly phosphodiester-linked; [ ] holds rarer units or linkages, { } end groups; capitals alone tell only the bases. [ms] = mesyl phosphoramidate linkage; e = 2'-O-(2-methoxyethyl) (MOE); k = constrained ethyl (cEt); [5mC] = 5-methylcytosine; d = 2'-deoxy (DNA)

In the case of “1693105: 6-10-4 MOE gapmer CTTGGTGAATCTTTATTAAA, linkages sosssszzzssssszssss (e[5mC]*eTeT*eG*eG*eT*dG[ms]dA[ms]dA[ms]dT*d[5mC]*dT*dT*dT*dA[ms]dT*eT*eA*eA*eA) [compound 1693105]”, the “APOE RNA (% control) Cortex” value in the series with human APOE RNA [1] (Cortex, C57BL/6NTac-Apoeem7250 knock-in mice, 4 weeks (Table 21)) was found to be 54 % control; with human APOE RNA [1] (Cortex, C57BL/6NTac-Apoeem7250 knock-in mice, 4 weeks (Table 22)) it was 65 % control; in the series with human APOE RNA [2] it was 58 % control. For the same substance, the “APOE RNA (% control) Spinal Cord” value with human APOE RNA [1] (Spinal Cord, C57BL/6NTac-Apoeem7250 knock-in mice, 4 weeks (Table 21)) was determined as 51 % control; in the series on human APOE RNA [1] (Spinal Cord, C57BL/6NTac-Apoeem7250 knock-in mice, 4 weeks (Table 22)), 87 % control; with human APOE RNA [2], 43 % control.

On to “1746809 (k[5mC]*dT[ms]kT*dG[ms]kG*dT[ms]dG[ms]dA[ms]dA[ms]dT*d[5mC]*dT*dT*dT*dA[ms]dT*dT[ms]kA*kA*kA; antisense) [Compound 1746809]”, for which the “APOE RNA (% UTC)” value with human APOE RNA [3] (5 nM) is given as 97 % UTC; in the series on human APOE RNA [3] (13 nM), 94 % UTC; with human APOE RNA [3] (33 nM), 86 % UTC; with human APOE RNA [3] (82 nM), 72 % UTC; in the series on human APOE RNA [3] (205 nM), 59 % UTC; in the series with human APOE RNA [3] (512 nM), 34 % UTC. For the same substance, the “APOE RNA (% UTC)” value with human APOE RNA [3] (1,280 nM) worked out at 28 % UTC; with human APOE RNA [3] (3,200 nM), 11 % UTC; in the series with human APOE RNA [3] (8,000 nM) it was 15 % UTC; with human APOE RNA [3] (20,000 nM) it was 10 % UTC; in the series with human APOE RNA [4] (5 nM, 5 days (Table 14)) it was 93 % UTC; in the series on human APOE RNA [4] (13 nM, 5 days (Table 14)), 118 % UTC. The “APOE RNA (% UTC)” value with human APOE RNA [4] (33 nM, 5 days (Table 14)) was 80 % UTC; in the series on human APOE RNA [4] (82 nM, 5 days (Table 14)) it was 68 % UTC; in the series on human APOE RNA [4] (205 nM, 5 days (Table 14)), 77 % UTC; in the series with human APOE RNA [4] (512 nM, 5 days (Table 14)), 57 % UTC; in the series with human APOE RNA [4] (1,280 nM, 5 days (Table 14)), 31 % UTC; in the series on human APOE RNA [4] (3,200 nM, 5 days (Table 14)), 34 % UTC. Moreover, the “APOE RNA (% UTC)” value in the series on human APOE RNA [4] (8,000 nM, 5 days (Table 14)) was 12 % UTC; in the series with human APOE RNA [4] (20,000 nM, 5 days (Table 14)), 8 % UTC. Also, the IC50 in the series on human APOE RNA [3] (approximately 24 hours) stood at 310 nM; with human APOE RNA [4] (5 days (Table 14)), 660 nM. Further, the “APOE RNA (% control) Cortex” value with human APOE RNA [1] (cortex, 4 weeks post treatment, normalized to mouse Ppia) was 36 % control; in the series on human APOE RNA [2], 47 % control. In addition, the “APOE RNA (% control) Spinal Cord” value in the series on human APOE RNA [1] (spinal cord, 4 weeks post treatment, normalized to mouse Ppia) is given as 59 % control; in the series with human APOE RNA [2], 44 % control.

As to “Aks^mCeoTeoTesGesGksTdsGdzAdzAdzTds^mCdsTdsTdsTdsAdzTksTksAesAe (kA*e[5mC]eTeT*eG*kG*dT*dG[ms]dA[ms]dA[ms]dT*d[5mC]*dT*dT*dT*dA[ms]kT*kT*eA*eA) [Compound No. 1809635]”, the “APOE RNA (% UTC)” value in the series with human APOE RNA [4] (5 nM, 5 days (Table 13)) is on record as 67 % UTC; in the series on human APOE RNA [4] (13 nM, 5 days (Table 13)), 62 % UTC; with human APOE RNA [4] (33 nM, 5 days (Table 13)), 52 % UTC; with human APOE RNA [4] (82 nM, 5 days (Table 13)) it was 43 % UTC; with human APOE RNA [4] (205 nM, 5 days (Table 13)), 33 % UTC; with human APOE RNA [4] (512 nM, 5 days (Table 13)), 27 % UTC. The “APOE RNA (% UTC)” value in the series on human APOE RNA [4] (1,280 nM, 5 days (Table 13)) was found to be 40 % UTC; in the series on human APOE RNA [4] (3,200 nM, 5 days (Table 13)), 28 % UTC; with human APOE RNA [4] (8,000 nM, 5 days (Table 13)) it was 20 % UTC; in the series with human APOE RNA [4] (20,000 nM, 5 days (Table 13)), 20 % UTC. Moreover, in the series on human APOE RNA [4] (5 days (Table 13)), the midpoint of inhibition, the IC50, lay at 50 nM. The “reduction of human APOE RNA in the cortex” value in the series with human APOE RNA [2] (APOE knock-in mouse model, 8 weeks post administration, assay of Example 11) came to 74%. In addition, the “APOE RNA (% control) Cortex” value with human APOE RNA [2] is on record as 26 % control. Also, the “APOE RNA (% control) Spinal Cord” value with human APOE RNA [2] is on record as 15 % control.
